Assay results as given in US12617795B2, “Substituted 6,7-dihydro-5H-pyrrolo[3,4-d]pyrimidines, 5,7-dihydrofuro[3,4-d]pyrimidines, and pyrido[2,3-d]pyrimidines as KCC2 modulators” (Astrazeneca AB, priority 2020, dated 2026).

Target: T1, KCC2 (Homo sapiens, UniProt Q9H2X9)
T1 construct: expressed in transfected cells; host or cells: HEK293 cells electroporated (Maxcyte STX) with the pcDNA3.1 KCC2 plasmid
T1 sequence (Q9H2X9 1-1139): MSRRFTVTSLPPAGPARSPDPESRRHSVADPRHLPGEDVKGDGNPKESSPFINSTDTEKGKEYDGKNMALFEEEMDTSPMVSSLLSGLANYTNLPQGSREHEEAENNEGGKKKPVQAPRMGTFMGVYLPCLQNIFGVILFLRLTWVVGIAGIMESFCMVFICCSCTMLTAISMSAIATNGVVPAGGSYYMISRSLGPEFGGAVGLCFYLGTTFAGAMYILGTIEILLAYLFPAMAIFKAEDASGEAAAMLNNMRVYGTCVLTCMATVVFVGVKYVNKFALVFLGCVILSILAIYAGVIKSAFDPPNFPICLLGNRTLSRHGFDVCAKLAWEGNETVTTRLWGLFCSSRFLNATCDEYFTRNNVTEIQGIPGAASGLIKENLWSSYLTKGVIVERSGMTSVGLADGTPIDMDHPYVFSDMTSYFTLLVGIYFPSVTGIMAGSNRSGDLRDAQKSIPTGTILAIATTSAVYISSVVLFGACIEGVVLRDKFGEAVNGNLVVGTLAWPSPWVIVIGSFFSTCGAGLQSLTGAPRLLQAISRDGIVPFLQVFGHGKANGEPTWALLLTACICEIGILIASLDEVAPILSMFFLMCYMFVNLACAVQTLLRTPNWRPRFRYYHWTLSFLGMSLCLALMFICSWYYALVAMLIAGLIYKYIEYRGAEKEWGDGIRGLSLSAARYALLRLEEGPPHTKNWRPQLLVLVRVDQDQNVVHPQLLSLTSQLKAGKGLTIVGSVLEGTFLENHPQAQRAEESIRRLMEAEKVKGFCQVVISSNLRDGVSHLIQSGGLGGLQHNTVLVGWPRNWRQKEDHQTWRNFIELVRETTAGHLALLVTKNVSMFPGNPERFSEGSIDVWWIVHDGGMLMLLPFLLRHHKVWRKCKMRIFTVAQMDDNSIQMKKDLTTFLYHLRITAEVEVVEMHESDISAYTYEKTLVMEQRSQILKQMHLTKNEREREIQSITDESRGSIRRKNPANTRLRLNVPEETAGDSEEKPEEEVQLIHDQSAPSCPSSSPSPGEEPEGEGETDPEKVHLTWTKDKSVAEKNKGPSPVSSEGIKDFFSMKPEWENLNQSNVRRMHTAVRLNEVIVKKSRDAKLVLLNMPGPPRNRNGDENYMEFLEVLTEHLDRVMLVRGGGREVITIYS
Assay: KCC2 thallium transport FLIPR-based assay (Tl+ influx in HEK293 cells expressing KCC2)
Format: cell-based
Settings: 90 min compound incubation at RT, thallium flux at 120 s used to determine EC50
In short: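 Transient electroporation of codon-optimised human KCC2 into HEK293 cells, plated and cultured 48 h before dye loading (1 h, RT). Compounds run as a 12-point 1:2 series from 100 μM top, 90 min RT in buffer containing bumetanide; Tl+ flux read by FLIPR after stimulus addition, 1 s intervals over 120 s, with the 120 s signal used for EC50.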

Structure (SMILES)	EC50 [nM]
CC(C)N1Cc2c(Nc3ccc(C4CCCCC4)cc3)nc(N(C)Cc3ccon3)nc2C1=O [Example 22, 4-[(4-cyclohexylphenyl)amino]-2-{methyl[(1,2-oxazol-3-yl)methyl]amino}-6-(propan-2-yl)-5,6-dihydro-7H-pyrrolo[3,4-d]pyrimidin-7-one]	2790
CC(C)N1Cc2c(Nc3ccc(C4CCCCC4)cc3)nc(N3CCOC(CO)C3)nc2C1=O (stereo not drawn) [Example 31, 4-[(4-cyclohexylphenyl)amino]-2-[2-(hydroxymethyl)morpholin-4-yl]-6-(propan-2-yl)-5,6-dihydro-7H-pyrrolo[3,4-d]pyrimidin-7-one]	4810
CC(C)N1Cc2c(Nc3ccc(C4CCCCC4)cc3)nc(-n3ccnc3)nc2C1=O [Example 79, 4-((4-cyclohexylphenyl)amino)-2-(1H-imidazol-1-yl)-6-isopropyl-5,6-dihydro-7H-pyrrolo[3,4-d]pyrimidin-7-one]	6300
CC(C)N1Cc2c(Nc3ccc(-c4ccccc4)c(F)c3)nc(N3CCOCC3)nc2C1=O [Example 84, 4-[(2-fluoro[1,1′-biphenyl]-4-yl)amino]-2-(morpholin-4-yl)-6-(propan-2-yl)-5,6-dihydro-7H-pyrrolo[3,4-d]pyrimidin-7-one]	2090
CC(C)N1Cc2c(Nc3ccc(C4CCCCC4)cc3)nc(-c3cnn(C)c3)nc2C1=O [Example 47, 4-[(4-cyclohexylphenyl)amino]-2-(1-methyl-1H-pyrazol-4-yl)-6-(propan-2-yl)-5,6-dihydro-7H-pyrrolo[3,4-d]pyrimidin-7-one]	3160
CC(C)c1ccc(Nc2nc(N3CCSCC3)nc3c2CN(C(C)C)C3=O)cc1 [Example 5, 6-(propan-2-yl)-4-{[4-(propan-2-yl)phenyl]amino}-2-(thiomorpholin-4-yl)-5,6-dihydro-7H-pyrrolo[3,4-d]pyrimidin-7-one]	3770
CC(C)c1ccc(Nc2nc(N3C[C@@H](C)O[C@@H](C)C3)nc3c2CN(C(C)C)C3=O)cc1 [Example 4, 2-[(2R,6S)-2,6-dimethylmorpholin-4-yl]-6-(propan-2-yl)-4-{[4-(propan-2-yl)phenyl]amino}-5,6-dihydro-7H-pyrrolo[3,4-d]pyrimidin-7-one]	3760
CC(C)N1Cc2c(Nc3ccc(C4CCCCC4)cc3)nc(N(C)Cc3cnccn3)nc2C1=O [Example 33, 4-[(4-cyclohexylphenyl)amino]-2-{methyl[(prazin-2-yl)methyl]amino}-6-(propan-2-yl)-5,6-dihydro-7H-pyrrolo[3,4-d]pyrimidin-7-one]	5010
CC(C)N1Cc2c(Nc3ccc(-c4ccsc4)cc3)nc(N3CCOCC3)nc2C1=O [Example 114, 2-(morpholin-4-yl)-6-(propan-2-yl)-4-{[4-(thiophen-3-yl)phenyl]amino}-5,6-dihydro-7H-pyrrolo[3,4-d]pyrimidin-7-one]	7300
C[C@@H]1CN(c2nc(Nc3ccc(C4CCCCC4)cc3)c3cccnc3n2)CCO1 [Example 96, N-(4-cyclohexylphenyl)-2-[(2R)-2-methylmorpholin-4-yl]pyrido[2,3-d]pyrimidin-4-amine]	2920
CCN1Cc2c(Nc3ccc(C(C)C)cc3)nc(N3CCO[C@H](C)C3)nc2C1=O [Example 67, 6-ethyl-2-[(2R)-2-methylmorpholin-4-yl]-4-{[4-(propan-2-yl)phenyl]amino}-5,6-dihydro-7H-pyrrolo[3,4-d]pyrimidin-7-one]	4070
CC(C)N1Cc2c(Nc3ccc(OC4CCCC4)cc3)nc(N3CCO[C@H](C)C3)nc2C1=O [Example 64, 4-{[4-(cyclopentyloxy)phenyl]amino}-2-[(2R)-2-methylmorpholin-4-yl]-6-(propan-2-yl)-5,6-dihydro-7H-pyrrolo[3,4-d]pyrimidin-7-one]	5760
CCCc1ccc(Nc2nc(N3CCOC(C4CC4)C3)nc3c2CN(C(C)C)C3=O)cc1 (stereo not drawn) [Example 59, 2-(2-cyclopropylmorpholin-4-yl)-6-(propan-2-yl)-4-[(4-propylphenyl)amino]-5,6-dihydro-7H-pyrrolo[3,4-d]pyrimidin-7-one]	4460
CC(C)N1Cc2c(Nc3ccc(C4CCCCC4)cc3)nc(N(C)CC3CCCO3)nc2C1=O (stereo not drawn) [Example 35]	6300

These reach a lower EC50. Values come first.

EC50 [nM]	Structure (SMILES)
1970	C[C@@H]1CN(c2nc(Nc3ccc(C4CCCCC4)cc3)c3cc(N)cnc3n2)CCO1 [Example 108, (R)—N4-(4-cyclohexylphenyl)-2-(2-methylmorpholino)pyrido[2,3-d]pyrimidine-4,6-diamine]
1710	C[C@@H]1CN(c2nc3c(c(Nc4ccc(C5CCCCC5)cc4)n2)COC3)CCO1 [Example 90, (R)—N-(4-cyclohexylphenyl)-2-(2-methylmorpholino)-5,7-dihydrofuro[3,4-d]pyrimidin-4-amine]
1630	C[C@@H]1CN(c2nc(Nc3ccc(C4CCCCC4)cc3)c3cc(C(N)=O)cnc3n2)CCO1 [Example 104, (R)-4-((4-cyclohexylphenyl)amino)-2-(2-methylmorpholino)pyrido[2,3-d]pyrimidine-6-carboxamide]
1410	CCCCCCCOc1ccc(-c2ccc(Nc3nc(N4CCOC(C5CC5)C4)nc4c3COC4)cc2)cc1 (stereo not drawn) [Example 93]
1350	CC1CN(c2nc(Nc3ccc(C4CCCCC4)cc3)c3c(n2)C(=O)N(C(C)C)C3)CCO1 (stereo not drawn) [Example 12, 4-[(4-cyclohexylphenyl)amino]-2-(2-methylmorpholin-4-yl)-6-(propan-2-yl)-5,6-dihydro-7H-pyrrolo[3,4-d]pyrimidin-7-one]
1300	C[C@@H]1CN(c2nc3c(c(Nc4ccc(-c5ccc(OCCCCCC(F)(F)F)cc5)cc4)n2)COC3)CCO1 [Example 94, 2-[(2R)-2-methylmorpholin-4-yl]-N-{4′-[(6,6,6-trifluorohexyl)oxy][1,1′-biphenyl]-4-yl}-5,7-dihydrofuro[3,4-d]pyrimidin-4-amine]
1150	CC(C)N1Cc2c(Nc3ccc(C4CCCCC4)cc3)nc(C3=CCOCC3)nc2C1=O [Example 45, 4-[(4-cyclohexylphenyl)amino]-2-(3,6-dihydro-2H-pyran-4-yl)-6-(propan-2-yl)-5,6-dihydro-7H-pyrrolo[3,4-d]pyrimidin-7-one]
1010	C[C@@H]1CN(c2nc(Nc3ccc(C4CCCCC4)cc3)c3cc(C#N)cnc3n2)CCO1 [Example 101, (R)-4-((4-cyclohexylphenyl)amino)-2-(2-methylmorpholino)pyrido[2,3-d]pyrimidine-6-carbonitrile]
973	CC(C)N1Cc2c(Nc3ccc(Oc4ccc(F)cc4)cc3)nc(N3CCO[C@H](C)C3)nc2C1=O [Example 51, (R)-4-((4-(4-fluorophenoxy)phenyl)amino)-6-isopropyl-2-(2-methylmorpholino)-5,6-dihydro-7H-pyrrolo[3,4-d]pyrimidin-7-one]
917	CC(C)N1Cc2c(Nc3ccc(-c4ccc(OCCNC(=O)OC(C)(C)C)cc4)cc3)nc(N3CCOC(C4CC4)C3)nc2C1=O (stereo not drawn) [Example 66, tert-butyl {2-[(4′-{[2-(2-cyclopropylmorpholin-4-yl)-7-oxo-6-(propan-2-yl)-6,7-dihydro-5H-pyrrolo[3,4-d]pyrimidin-4-yl]amino}[1,1′-biphenyl]-4-yl)oxy]ethyl}carbamate]
738	COc1cc(-c2nc(Nc3ccc(C4CCCCC4)cc3)c3c(n2)C(=O)N(C(C)C)C3)ccn1 [Example 43, 4-[(4-cyclohexylphenyl)amino]-2-(2-methoxypyridin-4-yl)-6-(propan-2-yl)-5,6-dihydro-7H-pyrrolo[3,4-d]pyrimidin-7-one]
707	CC(C)N1Cc2c(Nc3ccc(C4CCCCC4)cc3)nc(N3CCOC(C4CC4)C3)nc2C1=O (single isomer, unassigned) [Example 14, 4-[(4-cyclohexylphenyl)amino]-2-(2-cyclopropylmorpholin-4-yl)-6-(propan-2-yl)-5,6-dihydro-7H-pyrrolo[3,4-d]pyrimidin-7-one]
215	CCCCCCCOc1ccc(-c2ccc(Nc3nc(N4CCOC(C5CC5)C4)nc4c3CN(C(C)C)C4=O)cc2)cc1 (stereo not drawn) [Example 53, 2-(2-cyclopropylmorpholin-4-yl)-4-{[4′-(heptyloxy)[1,1′-biphenyl]-4-yl]amino}-6-(propan-2-yl)-5,6-dihydro-7H-pyrrolo[3,4-d]pyrimidin-7-one]
